Laboratory results taken from BindingDB's records for doi:10.1021/jm500763m (Beijing Institute of Pharmacology & Toxicology, 2014).
pEC50: −log10 of the molar value. Square brackets hold non-standard residues; d marks the D form. Peptide text beside a SMILES is read from it. * marks the point of attachment. X1 = C=CCOC(=O)[C@]12CC[C@@H](C(=C)C)[C@@H]1[C@H]1CC[C@@H]3[C@@]4(C)CC[C@H](OC(=O)CCc5cn(CC(=O)*)nn5)C(C)(C)[C@@H]4CC[C@@]3(C)[C@]1(C)CC2; X8 = C[C@H]1[C@H](C)CC[C@]2(C(=O)O)CC[C@]3(C)C(=CC[C@@H]4[C@@]5(C)CC[C@H](OC(=O)CCc6cn(CC(=O)*)nn6)C(C)(C)[C@@H]5CC[C@]43C)[C@H]12; X7 = C[C@H]1[C@H](C)CC[C@]2(C(=O)OCc3cn(CC(=O)*)nn3)CC[C@]3(C)C(=CC[C@@H]4[C@@]5(C)CC[C@H](O)C(C)(C)[C@@H]5CC[C@]43C)[C@H]12; X10 = CC1(C)CC[C@]2(C(=O)OCc3cn(CC(=O)*)nn3)CC[C@]3(C)C(=CC[C@@H]4[C@@]5(C)CC[C@H](O)C(C)(C)[C@@H]5CC[C@]43C)[C@@H]2C1; X11 = CCCc1cn(CC(=O)*)nn1; βAla = NCCC(=O)O

Assays:
[1] = Inhibition of HIV1 gp41-induced cell-cell fusion between viral envelope expressing human HL2/3 cells to CD4/CCR5 receptor expressing TZM-bl cells after 6 to 8 hrs by luciferase assay
[2] = Inhibition of HIV1 gp41-induced cell-cell fusion between viral envelope expressing human HL2/3 cells to CD4/CCR5 receptor expressing TZM-bl cells compound preincubated for 1 hr measured after 48 hrs by prime/wash assay
[3] = Inhibition of HIV1 gp41-induced cell-cell fusion between viral envelope expressing human HL2/3 cells to CD4/CCR5 receptor expressing TZM-bl cells compound preincubated for 1 hr followed by wash out measured after 48 hrs by prime/wash assay

Row | Molecule | pEC50 [1] | pEC50 [2] | pEC50 [3]
1 | C=CCOC(=O)[C@]12CC[C@@H](C(=C)C)[C@@H]1[C@H]1CC[C@@H]3[C@@]4(C)CC[C@H](OC(=O)CCc5cn(CC(=O)NCCCC[C@H](NC(=O)CCNC(=O)[C@H](CC(C)C)NC(=O)[C@H](CC(C)C)NC(=O)[C@H](CCC(=O)O)NC(=O)[C@H](CCC(N)=O)NC(=O)[C@H](CCC(=O)O)NC(=O)[C@H](CC(N)=O)NC(=O)[C@H](CCCCN)NC(=O)[C@H](CCC(=O)O)NC(=O)[C@H](CCC(N)=O)NC(=O)[C@H](CCC(N)=O)NC(=O)[C@H](CC(N)=O)NC(=O)[C@H](CCC(N)=O)NC(=O)[C@H](CO)NC(=O)[C@H](CCC(=O)O)NC(=O)[C@H](CCC(=O)O)NC(=O)[C@@H](NC(=O)[C@H](CC(C)C)NC(=O)[C@H](CO)NC(=O)[C@H](Cc6cnc[nH]6)NC(=O)[C@@H](NC(=O)[C@H](CC(C)C)NC(=O)[C@H](CO)NC(=O)[C@@H](NC(=O)[C@H](Cc6ccc(O)cc6)NC(=O)[C@H](CC(N)=O)NC(=O)[C@H](CC(N)=O)NC(C)=O)[C@@H](C)O)[C@@H](C)CC)[C@@H](C)CC)C(N)=O)nn5)C(C)(C)[C@@H]4CC[C@@]3(C)[C@]1(C)CC2 (Ac-NNYTSLIHSLIEESQNQQEKNEQELL[βAla]K(X1)-NH2) | 8.41 | 7.89 | –
2 | CC[C@H](C)[C@H](NC(=O)[C@H](CC(C)C)NC(=O)[C@H](CO)NC(=O)[C@H](Cc1cnc[nH]1)NC(=O)[C@@H](NC(=O)[C@H](CC(C)C)NC(=O)[C@H](CO)NC(=O)[C@@H](NC(=O)[C@H](Cc1ccc(O)cc1)NC(=O)[C@H](CC(N)=O)NC(=O)[C@H](CC(N)=O)NC(=O)CCNC(=O)Cn1cc(COC(=O)[C@]23CC[C@@H](C)[C@H](C)[C@H]2C2=CC[C@@H]4[C@@]5(C)CC[C@H](O)C(C)(C)[C@@H]5CC[C@@]4(C)[C@]2(C)CC3)nn1)[C@@H](C)O)[C@@H](C)CC)C(=O)N[C@@H](CCC(=O)O)C(=O)N[C@@H](CCC(=O)O)C(=O)N[C@@H](CO)C(=O)N[C@@H](CCC(N)=O)C(=O)N[C@@H](CC(N)=O)C(=O)N[C@@H](CCC(N)=O)C(=O)N[C@@H](CCC(N)=O)C(=O)N[C@@H](CCC(=O)O)C(=O)N[C@@H](CCCCN)C(=O)N[C@@H](CC(N)=O)C(=O)N[C@@H](CCC(=O)O)C(=O)N[C@@H](CCC(N)=O)C(=O)N[C@@H](CCC(=O)O)C(=O)N[C@@H](CC(C)C)C(=O)N[C@@H](CC(C)C)C(N)=O ({X7-βAla}-NNYTSLIHSLIEESQNQQEKNEQELL-NH2) | 6.84 | – | –
3 | CC[C@H](C)[C@H](NC(=O)[C@H](CC(C)C)NC(=O)[C@H](CO)NC(=O)[C@H](Cc1cnc[nH]1)NC(=O)[C@@H](NC(=O)[C@H](CC(C)C)NC(=O)[C@H](CO)NC(=O)[C@@H](NC(=O)[C@H](Cc1ccc(O)cc1)NC(=O)[C@H](CC(N)=O)NC(=O)[C@H](CC(N)=O)NC(=O)CCNC(=O)Cn1cc(CCC(=O)O[C@H]2CC[C@]3(C)[C@H]4CC=C5[C@@H]6[C@@H](C)[C@H](C)CC[C@]6(C(=O)O)CC[C@@]5(C)[C@]4(C)CC[C@H]3C2(C)C)nn1)[C@@H](C)O)[C@@H](C)CC)C(=O)N[C@@H](CCC(=O)O)C(=O)N[C@@H](CCC(=O)O)C(=O)N[C@@H](CO)C(=O)N[C@@H](CCC(N)=O)C(=O)N[C@@H](CC(N)=O)C(=O)N[C@@H](CCC(N)=O)C(=O)N[C@@H](CCC(N)=O)C(=O)N[C@@H](CCC(=O)O)C(=O)N[C@@H](CCCCN)C(=O)N[C@@H](CC(N)=O)C(=O)N[C@@H](CCC(=O)O)C(=O)N[C@@H](CCC(N)=O)C(=O)N[C@@H](CCC(=O)O)C(=O)N[C@@H](CC(C)C)C(=O)N[C@@H](CC(C)C)C(N)=O ({X8-βAla}-NNYTSLIHSLIEESQNQQEKNEQELL-NH2) | 7.28 | – | –
4 | CC[C@H](C)[C@H](NC(=O)[C@H](CC(C)C)NC(=O)[C@H](CO)NC(=O)[C@H](Cc1cnc[nH]1)NC(=O)[C@@H](NC(=O)[C@H](CC(C)C)NC(=O)[C@H](CO)NC(=O)[C@@H](NC(=O)[C@H](Cc1ccc(O)cc1)NC(=O)[C@H](CC(N)=O)NC(=O)[C@H](CC(N)=O)NC(=O)CCNC(=O)Cn1cc(COC(=O)[C@]23CCC(C)(C)C[C@H]2C2=CC[C@@H]4[C@@]5(C)CC[C@H](O)C(C)(C)[C@@H]5CC[C@@]4(C)[C@]2(C)CC3)nn1)[C@@H](C)O)[C@@H](C)CC)C(=O)N[C@@H](CCC(=O)O)C(=O)N[C@@H](CCC(=O)O)C(=O)N[C@@H](CO)C(=O)N[C@@H](CCC(N)=O)C(=O)N[C@@H](CC(N)=O)C(=O)N[C@@H](CCC(N)=O)C(=O)N[C@@H](CCC(N)=O)C(=O)N[C@@H](CCC(=O)O)C(=O)N[C@@H](CCCCN)C(=O)N[C@@H](CC(N)=O)C(=O)N[C@@H](CCC(=O)O)C(=O)N[C@@H](CCC(N)=O)C(=O)N[C@@H](CCC(=O)O)C(=O)N[C@@H](CC(C)C)C(=O)N[C@@H](CC(C)C)C(N)=O ({X10-βAla}-NNYTSLIHSLIEESQNQQEKNEQELL-NH2) | 6.75 | – | –
5 | CCCc1cn(CC(=O)NCCC(=O)N[C@@H](CC(N)=O)C(=O)N[C@@H](CC(N)=O)C(=O)N[C@@H](Cc2ccc(O)cc2)C(=O)N[C@H](C(=O)N[C@@H](CO)C(=O)N[C@@H](CC(C)C)C(=O)N[C@H](C(=O)N[C@@H](Cc2cnc[nH]2)C(=O)N[C@@H](CO)C(=O)N[C@@H](CC(C)C)C(=O)N[C@H](C(=O)N[C@@H](CCC(=O)O)C(=O)N[C@@H](CCC(=O)O)C(=O)N[C@@H](CO)C(=O)N[C@@H](CCC(N)=O)C(=O)N[C@@H](CC(N)=O)C(=O)N[C@@H](CCC(N)=O)C(=O)N[C@@H](CCC(N)=O)C(=O)N[C@@H](CCC(=O)O)C(=O)N[C@@H](CCCCN)C(=O)N[C@@H](CC(N)=O)C(=O)N[C@@H](CCC(=O)O)C(=O)N[C@@H](CCC(N)=O)C(=O)N[C@@H](CCC(=O)O)C(=O)N[C@@H](CC(C)C)C(=O)N[C@@H](CC(C)C)C(N)=O)[C@@H](C)CC)[C@@H](C)CC)[C@@H](C)O)nn1 ({X11-βAla}-NNYTSLIHSLIEESQNQQEKNEQELL-NH2) | 5.45 | – | –
6 | C[C@H]1[C@H](C)CC[C@]2(C(=O)O)CC[C@]3(C)C(=CC[C@@H]4[C@@]5(C)CC[C@H](O)C(C)(C)[C@@H]5CC[C@]43C)[C@H]12 [3beta-hydroxyurs-12-en-28-oic acid] | < 4.00 | – | –
7 | CC1(C)CC[C@]2(C(=O)O)CC[C@]3(C)C(=CC[C@@H]4[C@@]5(C)CC[C@H](O)C(C)(C)[C@@H]5CC[C@]43C)[C@@H]2C1 [Oleanolic acid (OA)(Compound 1)] | < 4.00 | – | –
8 | enfuvirtide | 8.00 | 7.85 | 6.27
